pIC50: −log10 of the molar value. Several values for one entry are separate records, joined by “and”; a condition that tells them apart may be missing. Equal values may be shown once. Entries after “also recorded” stand apart in the source; their conditions may differ. Read-outs that look alike come from different tables or passages of the source.
Columns and labels:
[1] = tested on: patients with advanced solid tumors; assay: Phase I trial: antitumor activity (RECIST 1.1); type: in vivo, human
Experimental: Descriptive statistics of safety are presented per CTCAE v4.0. Subjects who received at least one dose of CT053PTSA were considered eligible to be evaluated and included in safety analyses. […] According to the RECIST 1.1 criteria, imaging examinations were performed at each specified time point in the protocol. The antitumor activity was measured by RECIST1.1.

[2] = tested on: SNU-16; assay: Cell proliferation assay (CellTiter-Glo, 72 hours); type: cell-based; details: Homo sapiens, read-out: IC50 anti-proliferative
Experimental: (§4) Human gastric tumor cell lines with high MET expression levels, namely, the GTL-16, MKN45, SNU638, Hs746T, SNU-620, and SNU-5 cell lines, were used in the assay. These cell lines were obtained from American Type Culture Collection (ATCC), Japanese Collection of Research Bioresources (JCRB), Shanghai Institutes of Biological Sciences, CAS (SIBS), Korean Cell Line Bank (KCLB) or National Institutes of Health (NIH). […] Cell viability was measured after 72 hours using a CellTiter-Glo Luminescent Cell Viability Assay Kit (Promega, WI, USA) according to the manufacturer’s instructions.

[3] = tested on: SNU-5; assay: Cell proliferation assay (CellTiter-Glo, 72 hours); type: cell-based; details: Homo sapiens, read-out: IC50 anti-proliferative
Experimental: (§5) Human gastric tumor cell lines with high MET expression levels, namely, the GTL-16, MKN45, SNU638, Hs746T, SNU-620, and SNU-5 cell lines, were used in the assay. […] Cell viability was measured after 72 hours using a CellTiter-Glo Luminescent Cell Viability Assay Kit (Promega, WI, USA) according to the manufacturer’s instructions.

[4] = tested on: GTL16; assay: Cell proliferation assay (CellTiter-Glo, 72 hours); type: cell-based; details: Homo sapiens, GTL 16, read-out: IC50 anti-proliferative
Experimental: as §5

[5] = target: FLT3 (Homo sapiens, UniProt P36888); assay: Kinase inhibition assay (LANCE or HTRF); type: biochemical; details: ATP at Km
Experimental: (§6) The IC50 values were determined by measuring phosphorylation of peptide substrate poly at ATP concentrations at the Km.

[6] = target: Yes (Homo sapiens, UniProt P07947); assay: Kinase inhibition assay (LANCE or HTRF); type: biochemical; details: ATP at Km
Experimental: as §6

[7] = tested on: HUVECs; assay: Endothelial cell tubule formation assay, VEGF-induced; type: cell-based; details: Homo sapiens, HUVEC, VEGF 40 ng/ml, 8 hours
From the text: Then, after staining with Calcein AM (ThermoFisher, CA, USA), images of tubule formation were captured, and the total tube area was quantified with ImageXpress HCS (Molecular Devices, CA, USA).

[8] = tested on: AGS; assay: Cell proliferation assay (CellTiter-Glo, 72 hours); type: cell-based; details: Homo sapiens, read-out: IC50 anti-proliferative
[9] = tested on: gastric tumor cell lines with high MET mRNA levels; assay: cells; details: Homo sapiens, read-out: average IC50 value
Experimental: (§1) These cell lines were obtained from American Type Culture Collection (ATCC), Japanese Collection of Research Bioresources (JCRB), Shanghai Institutes of Biological Sciences, CAS (SIBS), Korean Cell Line Bank (KCLB) or National Institutes of Health (NIH). […] Cell viability was measured after 72 hours using a CellTiter-Glo Luminescent Cell Viability Assay Kit (Promega, WI, USA) according to the manufacturer’s instructions.
(§2) The MET mRNA expression level in each human gastric cell lines was evaluated with real-time PCR. Glyceraldehyde-3-phosphate dehydrogenase (GAPDH) was considered as the internal control. The amplification was performed in a 20 μl mixture containing 10 μl of TaqMan Universal PCR Master Mix (Invitrogen, CA, USA) with UNG, 1 μl of the MET (Hs01565584_m1) or GAPDH (Hs02786624_g1) TaqMan Gene Expression Assay (Thermo, CA, USA), and 5 μl of cDNA solution. Each sample was analyzed in triplicate on an Agilent Technologies Stratagenes Mx3005P (CA, USA). Relative MET mRNA expression is presented as the fold-change, which was calculated using the 2^ (-ΔΔCt) method.

[10] = tested on: gastric tumor cell lines with low MET mRNA levels; assay: cells; details: Homo sapiens, read-out: average IC50 value
Experimental: as §1, §2

[11] = target: EphA4 (Homo sapiens, UniProt P54764); assay: Kinase inhibition assay (LANCE or HTRF); type: biochemical; details: ATP at Km
Experimental: as §6

[12] = target: VEGFR2 (Homo sapiens, UniProt P35968); assay: Cellular kinase phosphorylation assay (sandwich ELISA), HUVECs, VEGF-A stimulated; type: cell-based; design: endogenous in cells; host or cells: HUVEC
Experimental: Phosphorylation of the receptors MET, AXL, VEGFR2, and FLT3 was assessed in the transgenic human MKN45 gastric tumor cell line overexpressing MET, mouse embryonic fibroblasts (MEFs) expressing full-length human AXL (AXL-MEFs), human umbilical vein endothelial cells (HUVECs) […], and MEFs expressing full-length human FLT3 (FLT3-wt-MEFs), respectively. […] Then, HUVECs and FLT3-wt-MEFs were stimulated with the ligands VEGF-A (100 ng/ml, for 3 min) and FLT3-ligand (50 ng/ml, for 5 min). MKN45 (overexpressing MET) and AXL-MEFs cells had no stimulation. Cells treated with staurosporine (AXL, FLT3-wt, c-Kit, FLT3, TIE2, VEGF-R2; [1,0E-05 M]) or BMS777607 (MET; [1,0E-06 M]) or sunitinib (VEGF-R3; [1,0E-06 M]) or crizotinib (RON; [1,0E-05 M] were defined as low control (n = 8). The median value of those wells represented the background and was set to 0%. Cells treated with solvent alone were defined as high control (n = 8). The median value of those wells was set to 100%. Test sample-treated cells as well as high and low control were stimulated in identical manner. Quantification of receptor tyrosine kinase autophosphorylation was assessed in 96-well plates via sandwich ELISA using a receptor specific capture antibody and an anti-phosphotyrosine detection antibody. […]

[13] = tested on: AKT phosphorylation; assay: Western blot of signaling molecules in SNU-5 cells; type: cell-based, human
From the text: (§3) The SNU-5 cell line was selected for western blotting analysis of signaling molecules. […] Immunoreactive proteins (p-AXL, t-ERK and p-ERK) were visualized using the ECL system (Pierce Chemical, TX, USA). Other proteins were detected by Odyssey (LI-COR, NE, USA) at a wavelength of 700 nm or 800 nm. […] Tumor lysates were subjected to western blotting. The following antibodies were purchased from Cell Signaling Technology (Cell Signaling Technology Cat#3148, RRID : AB_1031042): anti-MET (Cell Signaling Technology Cat# 3148, RRID : AB_1031042), anti-p-MET Y1234/1235 (Antibodies-Online Cat# ABIN461461, RRID : AB_10786128), anti-AXL (Cell Signaling Technology Cat# 4566, RRID : AB_2062563), anti-p-AXL Y702 (5724S), anti-ERK (9107S), anti-p-ERK Thr202/Tyr204 (4370S), anti-p-AKT Ser473 (4060S), and anti-AKT (Cell Signaling Technology Cat# 2920, RRID : AB_1147620).

[14] = tested on: ERK phosphorylation; assay: Western blot of signaling molecules in SNU-5 cells; type: cell-based, human
From the text: as §3

[15] = tested on: MET phosphorylation; assay: Western blot of signaling molecules in SNU-5 cells; type: cell-based, human
From the text: as §3

[16] = tested on: AXL phosphorylation; assay: Western blot of signaling molecules in SNU-5 cells; type: cell-based, human
From the text: as §3

[17] = tested on: SNU-216; assay: Cell proliferation assay (CellTiter-Glo, 72 hours); type: cell-based; details: Homo sapiens, read-out: IC50 anti-proliferative
Experimental: as §4

VEGFR2, sequence (P35968 20-1356): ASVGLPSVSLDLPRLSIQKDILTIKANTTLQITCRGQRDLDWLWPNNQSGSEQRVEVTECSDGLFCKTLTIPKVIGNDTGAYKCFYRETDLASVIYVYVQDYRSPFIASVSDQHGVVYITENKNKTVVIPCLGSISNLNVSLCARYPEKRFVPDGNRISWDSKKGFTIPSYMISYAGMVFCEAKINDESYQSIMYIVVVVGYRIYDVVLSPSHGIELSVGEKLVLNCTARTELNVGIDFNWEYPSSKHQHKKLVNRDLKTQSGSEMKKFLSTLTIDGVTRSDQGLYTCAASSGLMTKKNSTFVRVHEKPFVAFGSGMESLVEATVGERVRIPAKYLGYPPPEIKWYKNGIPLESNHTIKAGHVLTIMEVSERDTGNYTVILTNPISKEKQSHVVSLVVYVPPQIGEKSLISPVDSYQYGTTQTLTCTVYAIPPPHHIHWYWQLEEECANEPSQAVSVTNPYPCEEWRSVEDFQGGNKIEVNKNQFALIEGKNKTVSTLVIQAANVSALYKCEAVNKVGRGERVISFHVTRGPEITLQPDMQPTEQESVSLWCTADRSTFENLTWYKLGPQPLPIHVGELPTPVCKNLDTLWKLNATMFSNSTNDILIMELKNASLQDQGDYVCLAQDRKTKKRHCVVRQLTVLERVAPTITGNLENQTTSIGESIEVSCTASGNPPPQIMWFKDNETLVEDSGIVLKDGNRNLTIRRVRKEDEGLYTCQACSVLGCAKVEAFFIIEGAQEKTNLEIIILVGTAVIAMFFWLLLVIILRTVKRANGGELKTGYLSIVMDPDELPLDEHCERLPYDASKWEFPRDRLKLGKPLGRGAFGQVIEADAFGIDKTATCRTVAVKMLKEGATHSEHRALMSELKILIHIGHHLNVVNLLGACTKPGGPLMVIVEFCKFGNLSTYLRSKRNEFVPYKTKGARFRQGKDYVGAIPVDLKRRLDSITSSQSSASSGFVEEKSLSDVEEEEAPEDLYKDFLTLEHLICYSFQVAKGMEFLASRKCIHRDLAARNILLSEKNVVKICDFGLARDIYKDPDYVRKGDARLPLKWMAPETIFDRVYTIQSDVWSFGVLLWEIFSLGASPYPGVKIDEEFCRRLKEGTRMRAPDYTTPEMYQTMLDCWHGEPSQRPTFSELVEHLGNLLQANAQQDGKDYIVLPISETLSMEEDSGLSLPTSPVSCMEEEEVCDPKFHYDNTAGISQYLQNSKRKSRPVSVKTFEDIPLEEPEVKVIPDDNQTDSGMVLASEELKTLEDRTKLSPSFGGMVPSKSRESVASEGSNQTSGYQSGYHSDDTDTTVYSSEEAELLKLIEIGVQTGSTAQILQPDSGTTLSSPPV
FLT3, sequence (P36888 27-993): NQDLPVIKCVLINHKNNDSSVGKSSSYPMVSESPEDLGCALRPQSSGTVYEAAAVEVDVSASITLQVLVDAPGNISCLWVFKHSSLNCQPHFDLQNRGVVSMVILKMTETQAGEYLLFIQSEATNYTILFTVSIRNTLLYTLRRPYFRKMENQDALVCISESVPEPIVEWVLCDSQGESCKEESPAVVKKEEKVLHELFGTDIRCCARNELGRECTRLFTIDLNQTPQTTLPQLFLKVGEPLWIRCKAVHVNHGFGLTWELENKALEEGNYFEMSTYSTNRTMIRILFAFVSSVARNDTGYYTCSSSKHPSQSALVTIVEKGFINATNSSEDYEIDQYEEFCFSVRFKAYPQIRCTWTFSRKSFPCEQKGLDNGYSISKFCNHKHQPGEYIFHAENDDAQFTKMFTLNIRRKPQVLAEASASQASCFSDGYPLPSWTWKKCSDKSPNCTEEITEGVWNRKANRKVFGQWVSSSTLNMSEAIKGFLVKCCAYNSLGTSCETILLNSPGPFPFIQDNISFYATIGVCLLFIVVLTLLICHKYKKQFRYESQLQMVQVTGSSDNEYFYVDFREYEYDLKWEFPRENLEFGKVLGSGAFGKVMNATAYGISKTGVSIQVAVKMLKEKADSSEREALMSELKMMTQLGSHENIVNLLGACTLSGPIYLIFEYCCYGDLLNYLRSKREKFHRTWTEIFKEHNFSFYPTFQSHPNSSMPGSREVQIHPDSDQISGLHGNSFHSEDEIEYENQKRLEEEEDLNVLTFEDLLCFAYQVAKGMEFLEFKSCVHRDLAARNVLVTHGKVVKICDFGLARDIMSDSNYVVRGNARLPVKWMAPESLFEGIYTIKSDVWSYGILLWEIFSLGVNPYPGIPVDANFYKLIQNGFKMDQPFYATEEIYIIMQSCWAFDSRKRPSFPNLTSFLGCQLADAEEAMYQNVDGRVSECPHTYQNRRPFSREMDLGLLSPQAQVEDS
Yes, sequence (P07947 whole entry): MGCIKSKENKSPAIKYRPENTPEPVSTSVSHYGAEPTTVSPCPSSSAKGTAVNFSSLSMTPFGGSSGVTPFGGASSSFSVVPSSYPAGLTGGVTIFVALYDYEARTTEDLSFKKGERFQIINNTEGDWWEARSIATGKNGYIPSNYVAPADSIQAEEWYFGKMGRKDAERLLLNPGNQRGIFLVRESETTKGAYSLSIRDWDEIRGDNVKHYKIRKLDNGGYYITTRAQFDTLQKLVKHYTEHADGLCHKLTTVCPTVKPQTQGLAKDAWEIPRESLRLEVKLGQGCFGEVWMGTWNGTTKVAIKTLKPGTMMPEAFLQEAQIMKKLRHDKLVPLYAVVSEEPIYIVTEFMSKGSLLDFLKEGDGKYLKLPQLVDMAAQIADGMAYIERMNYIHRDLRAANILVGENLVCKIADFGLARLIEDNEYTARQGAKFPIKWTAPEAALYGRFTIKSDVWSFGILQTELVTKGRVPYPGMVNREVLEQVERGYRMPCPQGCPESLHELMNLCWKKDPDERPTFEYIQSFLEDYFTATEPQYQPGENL
EphA4, sequence (P54764 20-986): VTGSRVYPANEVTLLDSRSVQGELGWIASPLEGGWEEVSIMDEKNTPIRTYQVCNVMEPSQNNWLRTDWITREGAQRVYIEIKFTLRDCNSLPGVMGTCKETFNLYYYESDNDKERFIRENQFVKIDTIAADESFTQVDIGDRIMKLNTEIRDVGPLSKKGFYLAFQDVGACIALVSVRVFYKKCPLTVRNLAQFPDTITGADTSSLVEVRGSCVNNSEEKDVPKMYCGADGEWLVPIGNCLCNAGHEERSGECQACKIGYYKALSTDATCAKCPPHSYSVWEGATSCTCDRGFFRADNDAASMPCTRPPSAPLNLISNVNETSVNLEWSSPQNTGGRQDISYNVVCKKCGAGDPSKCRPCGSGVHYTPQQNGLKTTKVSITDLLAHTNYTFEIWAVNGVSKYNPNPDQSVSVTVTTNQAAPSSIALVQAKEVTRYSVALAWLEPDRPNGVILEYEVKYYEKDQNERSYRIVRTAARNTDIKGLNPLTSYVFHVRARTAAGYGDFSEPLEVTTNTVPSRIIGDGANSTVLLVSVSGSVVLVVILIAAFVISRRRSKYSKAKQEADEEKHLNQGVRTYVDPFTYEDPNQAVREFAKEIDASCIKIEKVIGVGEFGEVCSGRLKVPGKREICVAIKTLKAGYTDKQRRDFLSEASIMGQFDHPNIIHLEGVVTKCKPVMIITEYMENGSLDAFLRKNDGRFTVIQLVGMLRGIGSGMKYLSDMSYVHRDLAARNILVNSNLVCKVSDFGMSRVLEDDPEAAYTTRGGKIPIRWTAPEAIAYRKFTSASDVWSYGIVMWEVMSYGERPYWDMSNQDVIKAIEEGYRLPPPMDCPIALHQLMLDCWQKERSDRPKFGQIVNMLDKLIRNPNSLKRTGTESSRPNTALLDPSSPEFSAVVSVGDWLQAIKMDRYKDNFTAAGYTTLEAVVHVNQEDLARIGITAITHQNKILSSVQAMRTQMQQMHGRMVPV

Question: How did the “duration of SD in single patients” value ([1]; 60 mg QD) turn out when Cc1c(C(=O)Nc2ccc(Oc3ccnc4cc(OCC(C)(C)O)ccc34)c(F)c2)c(=O)n(-c2ccccc2)n1C [CT053PTSA] was run?
Answer: The value was 16 weeks and 24 weeks.

Question: And the “duration of SD in single patient” value ([1]; 100 mg dose group)?
Answer: Its value is 8 weeks.

Question: And the “CR or PR” value ([1]; 17 evaluated patients)?
Answer: The value was “none of them achieved CR or PR; also recorded: No CR or PR was observed”.

Question: And the DCR ([1]; 17 evaluated patients)?
Answer: Its DCR is 29.4%.

Question: Which results are given for Cc1c(C(=O)Nc2ccc(Oc3ccnc4cc(OCC(C)(C)O)ccc34)c(F)c2)c(=O)n(-c2ccccc2)n1C [CT053]?
Answer: pIC50 [2]: < 5.00; pIC50 [3]: 7.22; pIC50 [4]: 6.77; pIC50 [5]: 8.07; pIC50 [6]: 6.96; pIC50 ([7]; read-out: IC50, percentage area of tube formation (+ VEGF)): 7.70; IC90 ([7]; read-out: IC90, Tube Area % Effect (+ VEGF)): 0.17 µM; pIC50 [8]: < 5.00; pIC50 [9]: 7.02; pIC50 [10]: < 5.00; pIC50 [11]: 6.43; pIC50 ([12]; HUVECs, VEGF-A 100 ng/ml, read-out: IC50, phosphorylation of VEGFR2): 8.96; pIC50 ([12]; printed in Figure 1E, read-out: phospho-VEGF-R2: IC50): 8.96; suppression of induced AKT activity [13]: a much higher concentration of CT053 was required; concentration that completely suppressed phosphorylation of ERK [14]: 1000 nM; concentration that completely suppressed phosphorylation of MET [15]: 1000 nM; concentration that completely suppressed AXL phosphorylation [16]: 100 nM; pIC50 [17]: < 5.00
